Test [1] deals with Ephrin type-B receptor 4 (Homo sapiens) (UniProt P54760). As to the kind of experiment: Inhibition of EPHB4 (unknown origin) at 0.49 uM relative to control.
Test [2] has as its target T1, cGMP-dependent protein kinase 1 (Homo sapiens) (UniProt Q13976).
T1 sequence (whole entry): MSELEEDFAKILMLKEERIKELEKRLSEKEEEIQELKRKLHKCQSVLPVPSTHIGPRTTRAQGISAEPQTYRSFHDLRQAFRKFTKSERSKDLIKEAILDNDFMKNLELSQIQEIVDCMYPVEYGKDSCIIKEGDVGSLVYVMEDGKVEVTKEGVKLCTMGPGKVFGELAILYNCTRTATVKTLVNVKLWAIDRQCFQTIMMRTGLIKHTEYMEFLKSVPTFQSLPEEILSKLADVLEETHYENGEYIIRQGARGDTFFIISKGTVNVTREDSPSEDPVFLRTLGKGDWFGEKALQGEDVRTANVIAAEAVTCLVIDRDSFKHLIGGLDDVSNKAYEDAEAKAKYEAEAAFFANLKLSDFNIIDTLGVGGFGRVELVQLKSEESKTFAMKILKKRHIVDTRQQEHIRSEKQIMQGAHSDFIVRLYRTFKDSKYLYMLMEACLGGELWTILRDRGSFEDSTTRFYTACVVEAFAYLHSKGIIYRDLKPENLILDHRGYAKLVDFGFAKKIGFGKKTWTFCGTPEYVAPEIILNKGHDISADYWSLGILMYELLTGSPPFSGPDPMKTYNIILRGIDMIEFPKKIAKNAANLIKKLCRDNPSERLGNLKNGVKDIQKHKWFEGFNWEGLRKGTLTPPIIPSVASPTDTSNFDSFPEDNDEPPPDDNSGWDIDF
The test can be described thus: Inhibition of PKG1-beta (unknown origin) at 0.49 uM relative to control.

Test [3] addresses Rho-associated protein kinase 1 (Homo sapiens) (UniProt Q13464). The test can be described thus: Inhibition of ROCK1 (unknown origin) at 0.49 uM relative to control.
Test [4] addresses Serine/threonine-protein kinase BRSK1 (Homo sapiens) (UniProt Q8TDC3). The test can be described thus: Inhibition of BRSK1 (unknown origin) at 0.49 uM relative to control.
Test [5] has as its system Receptor-type tyrosine-protein kinase FLT3 (Homo sapiens), P36888 [D835Y]. As to the kind of experiment: Inhibition of Flt3 D835Y mutant (unknown origin) at 0.49 uM relative to control.
Test [6] concerns the target Tyrosine-protein kinase HCK (Homo sapiens) (UniProt P08631). The test can be described thus: Inhibition of Hck (unknown origin) at 0.49 uM relative to control.
For test [7], the target named is Calcium/calmodulin-dependent protein kinase type 1 (Homo sapiens) (UniProt Q14012). As to the kind of experiment: Inhibition of CaMK1a (unknown origin) at 0.49 uM relative to control.
Chain of Calcium/calmodulin-dependent protein kinase type 1 (Homo sapiens) (Q14012 whole entry, looked up): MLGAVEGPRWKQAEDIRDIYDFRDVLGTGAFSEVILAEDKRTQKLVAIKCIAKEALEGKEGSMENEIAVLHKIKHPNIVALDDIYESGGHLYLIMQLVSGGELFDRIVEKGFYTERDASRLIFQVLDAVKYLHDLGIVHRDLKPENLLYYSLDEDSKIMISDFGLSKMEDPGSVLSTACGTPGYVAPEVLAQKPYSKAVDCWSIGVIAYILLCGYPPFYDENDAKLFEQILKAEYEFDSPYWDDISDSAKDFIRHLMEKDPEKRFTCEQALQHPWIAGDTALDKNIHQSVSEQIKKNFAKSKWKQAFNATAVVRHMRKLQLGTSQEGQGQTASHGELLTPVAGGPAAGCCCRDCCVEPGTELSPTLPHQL
Test [8] deals with Calcium/calmodulin-dependent protein kinase type II subunit gamma (Homo sapiens) (UniProt Q13555). As to the kind of experiment: Inhibition of CaMK2-gamma (unknown origin) at 0.49 uM relative to control.
Test [9] has as its system Tyrosine-protein kinase ABL1 (Homo sapiens), P00519 [Q252H]. The test can be described thus: Inhibition of Abl Q252H mutant (unknown origin) at 0.49 uM relative to control.
The target in test [10] is Platelet-derived growth factor receptor alpha (Homo sapiens) (UniProt P16234). As to the kind of experiment: Inhibition of PDGFR alpha (unknown origin) at 0.49 uM relative to control.
Test [11] deals with Proto-oncogene tyrosine-protein kinase receptor Ret (Homo sapiens), P07949 [Y791F]. As to the kind of experiment: Inhibition of RET Y791F mutant (unknown origin) at 0.49 uM relative to control.
Chain of Proto-oncogene tyrosine-protein kinase receptor Ret (Homo sapiens), P07949 [Y791F] (P07949 whole entry Y791F): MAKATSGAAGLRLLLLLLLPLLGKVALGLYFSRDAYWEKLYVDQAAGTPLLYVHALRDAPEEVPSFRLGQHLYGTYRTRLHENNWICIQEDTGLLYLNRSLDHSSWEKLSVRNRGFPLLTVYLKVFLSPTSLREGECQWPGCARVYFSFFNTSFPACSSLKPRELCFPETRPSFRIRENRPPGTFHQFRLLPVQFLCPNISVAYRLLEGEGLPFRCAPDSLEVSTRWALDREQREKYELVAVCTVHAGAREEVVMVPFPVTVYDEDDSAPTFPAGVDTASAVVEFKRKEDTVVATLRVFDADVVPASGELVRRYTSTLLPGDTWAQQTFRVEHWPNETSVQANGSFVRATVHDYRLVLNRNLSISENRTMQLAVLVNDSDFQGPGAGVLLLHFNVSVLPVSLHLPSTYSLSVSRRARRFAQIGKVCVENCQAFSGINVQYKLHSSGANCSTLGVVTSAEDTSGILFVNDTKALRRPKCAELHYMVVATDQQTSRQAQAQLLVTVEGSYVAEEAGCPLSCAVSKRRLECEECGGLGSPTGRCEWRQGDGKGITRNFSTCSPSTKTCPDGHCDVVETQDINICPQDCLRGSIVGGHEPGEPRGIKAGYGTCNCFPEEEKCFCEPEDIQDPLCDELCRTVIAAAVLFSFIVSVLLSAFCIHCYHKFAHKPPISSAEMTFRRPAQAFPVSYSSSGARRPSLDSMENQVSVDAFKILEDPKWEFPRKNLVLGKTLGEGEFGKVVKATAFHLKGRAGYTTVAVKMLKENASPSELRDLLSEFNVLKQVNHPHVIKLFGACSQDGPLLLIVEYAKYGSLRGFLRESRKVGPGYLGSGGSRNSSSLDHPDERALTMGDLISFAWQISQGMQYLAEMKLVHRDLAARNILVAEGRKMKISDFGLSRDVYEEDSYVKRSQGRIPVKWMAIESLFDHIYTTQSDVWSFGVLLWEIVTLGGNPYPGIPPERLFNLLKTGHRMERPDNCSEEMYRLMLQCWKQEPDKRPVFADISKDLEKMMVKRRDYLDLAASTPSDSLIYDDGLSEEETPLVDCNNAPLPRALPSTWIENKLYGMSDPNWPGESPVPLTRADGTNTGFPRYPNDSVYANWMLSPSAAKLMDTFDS
Test [12] has as its target Tyrosine-protein kinase ABL1 (Homo sapiens) (UniProt P00519). The test can be described thus: Inhibition of ABL (unknown origin) at 0.078 uM relative to control.
Test [13] concerns the target Serine/threonine-protein kinase Nek9 (Homo sapiens) (UniProt Q8TD19). As to the kind of experiment: Inhibition of NEK9 (unknown origin) at 0.45 uM relative to control.
Test [14] addresses Calcium/calmodulin-dependent protein kinase type 1 (Homo sapiens) (UniProt Q14012). As to the kind of experiment: Inhibition of CaMK1a (unknown origin) at 0.45 uM relative to control.
The target of test [15] is Serine/threonine-protein kinase 10 (Homo sapiens) (UniProt O94804). The test can be described thus: Inhibition of LOK (unknown origin) at 0.45 uM relative to control.
Chain of Serine/threonine-protein kinase 10 (Homo sapiens) (O94804 whole entry, looked up): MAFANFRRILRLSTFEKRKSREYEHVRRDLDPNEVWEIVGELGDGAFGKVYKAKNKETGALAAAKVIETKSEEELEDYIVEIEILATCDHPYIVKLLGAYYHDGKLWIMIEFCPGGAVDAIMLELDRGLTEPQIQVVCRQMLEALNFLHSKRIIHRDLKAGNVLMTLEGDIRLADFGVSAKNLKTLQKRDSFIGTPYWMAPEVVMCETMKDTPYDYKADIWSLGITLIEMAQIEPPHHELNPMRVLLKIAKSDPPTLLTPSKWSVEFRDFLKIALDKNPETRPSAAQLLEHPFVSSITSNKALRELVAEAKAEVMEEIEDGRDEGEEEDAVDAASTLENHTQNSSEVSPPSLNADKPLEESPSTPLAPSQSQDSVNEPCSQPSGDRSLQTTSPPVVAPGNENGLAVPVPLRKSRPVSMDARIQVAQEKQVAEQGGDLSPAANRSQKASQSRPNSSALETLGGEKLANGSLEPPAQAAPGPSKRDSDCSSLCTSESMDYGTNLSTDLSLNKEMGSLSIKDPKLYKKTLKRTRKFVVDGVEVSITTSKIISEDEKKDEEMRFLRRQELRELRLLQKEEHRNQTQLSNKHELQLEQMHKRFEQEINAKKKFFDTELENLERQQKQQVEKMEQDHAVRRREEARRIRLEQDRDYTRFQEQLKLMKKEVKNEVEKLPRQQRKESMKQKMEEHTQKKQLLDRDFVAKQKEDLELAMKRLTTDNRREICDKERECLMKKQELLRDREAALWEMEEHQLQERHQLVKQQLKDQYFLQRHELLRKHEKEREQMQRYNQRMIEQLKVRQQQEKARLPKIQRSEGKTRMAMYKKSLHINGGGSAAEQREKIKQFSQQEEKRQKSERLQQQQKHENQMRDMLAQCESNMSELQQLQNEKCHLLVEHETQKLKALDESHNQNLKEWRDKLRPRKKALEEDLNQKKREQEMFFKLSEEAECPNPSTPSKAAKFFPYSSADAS
Test [16] deals with Receptor-type tyrosine-protein kinase FLT3 (Homo sapiens), P36888 [D835Y]. The test can be described thus: Inhibition of Flt3 D835Y mutant (unknown origin) at 0.45 uM relative to control.
Test [17] deals with Serine/threonine-protein kinase DCLK2 (Homo sapiens) (UniProt Q8N568). As to the kind of experiment: Inhibition of DCAMKL2 (unknown origin) at 0.45 uM relative to control.
For test [18], the target named is Phosphorylase b kinase gamma catalytic chain, skeletal muscle/heart isoform (Homo sapiens) (UniProt Q16816). The test can be described thus: Inhibition of PhKg1 (unknown origin) at 0.45 uM relative to control.
Test [19] concerns the target Serine/threonine-protein kinase pim-2 (Homo sapiens) (UniProt Q9P1W9). As to the kind of experiment: Inhibition of PIM2 (unknown origin) at 0.45 uM relative to control.
In test [20] the target is T2, Serine/threonine-protein kinase D2 (Homo sapiens) (UniProt Q9BZL6).
T2 sequence (whole entry): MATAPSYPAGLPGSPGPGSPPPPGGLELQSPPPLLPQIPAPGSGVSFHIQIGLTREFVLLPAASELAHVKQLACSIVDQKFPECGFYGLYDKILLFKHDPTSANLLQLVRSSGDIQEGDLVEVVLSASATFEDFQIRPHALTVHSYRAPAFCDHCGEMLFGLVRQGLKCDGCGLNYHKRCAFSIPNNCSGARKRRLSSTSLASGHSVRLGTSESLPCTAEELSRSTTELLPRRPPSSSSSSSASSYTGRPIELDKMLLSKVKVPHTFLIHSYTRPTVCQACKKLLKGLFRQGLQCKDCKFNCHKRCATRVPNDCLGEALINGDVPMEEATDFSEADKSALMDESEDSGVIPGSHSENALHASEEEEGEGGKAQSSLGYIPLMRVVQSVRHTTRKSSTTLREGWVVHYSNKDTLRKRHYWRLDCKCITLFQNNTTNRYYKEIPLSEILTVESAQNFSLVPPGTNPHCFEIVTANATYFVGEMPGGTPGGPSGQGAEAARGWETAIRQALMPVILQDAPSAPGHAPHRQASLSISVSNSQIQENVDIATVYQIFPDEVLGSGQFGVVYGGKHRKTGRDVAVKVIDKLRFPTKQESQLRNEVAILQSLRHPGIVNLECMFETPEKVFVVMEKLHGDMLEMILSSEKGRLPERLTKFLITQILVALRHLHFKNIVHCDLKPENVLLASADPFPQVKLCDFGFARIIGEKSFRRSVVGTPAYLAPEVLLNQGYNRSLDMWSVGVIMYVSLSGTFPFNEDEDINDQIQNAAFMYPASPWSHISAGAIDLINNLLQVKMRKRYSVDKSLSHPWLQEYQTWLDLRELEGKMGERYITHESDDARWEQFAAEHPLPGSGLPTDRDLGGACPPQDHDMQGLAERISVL
The test can be described thus: Inhibition of PKD2 (unknown origin) at 0.45 uM relative to control.

Test [21] addresses Tyrosine-protein kinase Blk (Homo sapiens) (UniProt P51451). The test can be described thus: Inhibition of BLK (unknown origin) at 0.45 uM relative to control.

Structures are written as SMILES.

Chain of Tyrosine-protein kinase Blk (Homo sapiens) (P51451 2-505 limits assumed): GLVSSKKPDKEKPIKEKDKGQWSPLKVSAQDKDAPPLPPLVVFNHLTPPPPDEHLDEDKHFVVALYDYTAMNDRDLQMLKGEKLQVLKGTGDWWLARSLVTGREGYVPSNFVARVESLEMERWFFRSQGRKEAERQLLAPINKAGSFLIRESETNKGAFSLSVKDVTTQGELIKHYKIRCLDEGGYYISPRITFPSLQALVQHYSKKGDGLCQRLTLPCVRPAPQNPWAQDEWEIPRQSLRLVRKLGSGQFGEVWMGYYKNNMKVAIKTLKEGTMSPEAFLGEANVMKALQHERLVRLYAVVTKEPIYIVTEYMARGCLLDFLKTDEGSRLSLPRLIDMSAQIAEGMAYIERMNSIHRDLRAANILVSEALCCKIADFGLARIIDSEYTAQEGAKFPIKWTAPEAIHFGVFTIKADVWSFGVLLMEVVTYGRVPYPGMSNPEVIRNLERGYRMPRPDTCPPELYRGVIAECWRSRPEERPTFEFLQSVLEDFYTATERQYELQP
Chain of Tyrosine-protein kinase HCK (Homo sapiens) (P08631 2-526 limits assumed): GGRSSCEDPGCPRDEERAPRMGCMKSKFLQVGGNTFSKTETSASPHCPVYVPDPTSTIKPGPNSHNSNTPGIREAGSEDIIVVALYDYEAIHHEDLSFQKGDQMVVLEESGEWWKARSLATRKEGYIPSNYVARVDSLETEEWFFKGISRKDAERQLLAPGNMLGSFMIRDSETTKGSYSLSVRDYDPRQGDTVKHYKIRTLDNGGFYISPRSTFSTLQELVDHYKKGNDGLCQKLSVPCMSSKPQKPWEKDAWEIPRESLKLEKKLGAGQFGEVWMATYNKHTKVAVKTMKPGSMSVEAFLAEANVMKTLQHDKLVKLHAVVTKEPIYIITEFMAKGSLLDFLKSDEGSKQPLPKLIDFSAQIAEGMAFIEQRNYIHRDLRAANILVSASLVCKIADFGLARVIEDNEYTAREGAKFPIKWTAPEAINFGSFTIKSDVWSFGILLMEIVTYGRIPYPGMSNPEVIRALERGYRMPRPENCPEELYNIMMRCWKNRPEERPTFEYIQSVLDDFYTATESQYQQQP
Chain of Rho-associated protein kinase 1 (Homo sapiens) (Q13464 2-1354 limits assumed): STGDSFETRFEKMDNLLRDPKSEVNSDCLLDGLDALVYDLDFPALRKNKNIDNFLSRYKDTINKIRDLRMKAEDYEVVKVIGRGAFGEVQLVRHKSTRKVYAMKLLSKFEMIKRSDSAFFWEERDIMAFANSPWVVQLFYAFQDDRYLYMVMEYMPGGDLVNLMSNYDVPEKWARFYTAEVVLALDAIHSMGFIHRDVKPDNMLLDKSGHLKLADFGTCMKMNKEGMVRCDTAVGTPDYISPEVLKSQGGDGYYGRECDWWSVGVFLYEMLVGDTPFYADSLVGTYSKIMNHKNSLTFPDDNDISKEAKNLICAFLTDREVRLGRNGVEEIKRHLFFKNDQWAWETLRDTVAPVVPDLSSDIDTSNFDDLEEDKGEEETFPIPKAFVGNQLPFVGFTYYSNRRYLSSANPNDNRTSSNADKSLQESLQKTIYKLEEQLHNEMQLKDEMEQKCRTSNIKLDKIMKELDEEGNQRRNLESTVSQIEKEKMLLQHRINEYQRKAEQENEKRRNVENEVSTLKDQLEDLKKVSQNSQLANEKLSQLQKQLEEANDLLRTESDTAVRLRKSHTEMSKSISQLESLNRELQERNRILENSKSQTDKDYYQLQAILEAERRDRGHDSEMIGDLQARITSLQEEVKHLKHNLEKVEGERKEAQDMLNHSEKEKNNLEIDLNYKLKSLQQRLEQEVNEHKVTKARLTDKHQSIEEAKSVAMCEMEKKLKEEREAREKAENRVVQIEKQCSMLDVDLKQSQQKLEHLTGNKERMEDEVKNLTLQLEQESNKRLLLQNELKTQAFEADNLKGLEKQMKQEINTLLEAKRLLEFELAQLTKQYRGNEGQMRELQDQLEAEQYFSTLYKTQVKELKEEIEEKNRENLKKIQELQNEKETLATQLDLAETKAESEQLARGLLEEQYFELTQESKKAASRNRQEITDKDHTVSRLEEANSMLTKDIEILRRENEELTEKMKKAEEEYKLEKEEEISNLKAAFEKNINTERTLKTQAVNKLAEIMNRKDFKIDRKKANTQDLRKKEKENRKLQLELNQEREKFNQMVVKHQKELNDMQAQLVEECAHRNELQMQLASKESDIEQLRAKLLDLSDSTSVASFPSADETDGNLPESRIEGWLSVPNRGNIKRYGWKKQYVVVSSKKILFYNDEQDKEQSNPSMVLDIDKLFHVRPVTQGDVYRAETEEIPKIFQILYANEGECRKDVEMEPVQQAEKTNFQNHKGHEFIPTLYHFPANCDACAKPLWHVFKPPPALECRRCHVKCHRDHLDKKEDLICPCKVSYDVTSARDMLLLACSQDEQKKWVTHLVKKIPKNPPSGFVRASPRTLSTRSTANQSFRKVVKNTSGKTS

By inhibition is commonly meant the relative decrease from the control value, in per cent. Turning to `Cc1[nH]nc(C2CC2)c1-c1ccc2c(NC(=O)C3CC3)noc2c1`, the inhibition was found to be 1.7% in test [1]; 2% in [2]; 1% in test [3]; 1.7% in test [4]; 15.3% in test [5]; 3.3% in test [6]. Moreover, the inhibition in [7] was 2.3%; in test [8], 6%; in [9] it was 30.3%; in test [10] it was 0.7%; in test [11] it was 0%.

As for `COC(=O)Nc1noc2cc(-c3c(-c4ccccn4)n[nH]c3C)ccc12`, the inhibition in test [12] was 34%.

For `Cc1n[nH]c(C)c1-c1ccc2c(NC(=O)c3ccc(N4CCN(C)CC4)cc3)n[nH]c2c1`, the inhibition is 1.7% in [13]; -0.7% in [14]; 9.3% in test [15]; 89% in [16]; 7% in [17]; 0.7% in [18]. Also, the inhibition in test [19] is -1.7%; in [20] it was 6.7%; in test [21], 20%.

(Values after ChEMBL document CHEMBL4052759, “Discovery of DS79182026: A potent orally active hepcidin production inhibitor” (Bioorg Med Chem Lett, 2017).)
